Assay results as given in the supplement of paper PMC10307832.

Assays:
Experiment in all cases: relative viability (nuclei count vs DMSO), 5 days (fraction); higher = more cells survive
[1] = compound: Nc1ccn([C@@H]2O[C@H](CO)[C@@H](O)C2(F)F)c(=O)n1 [Gemcitabine] + CC(=O)c1c(C)c2cnc(Nc3ccc(N4CCNCC4)cn3)nc2n(C2CCCC2)c1=O [Palbociclib] (partner 0.5 µM)
Outline: (§1)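 Lung cancer cell lines in 1536-well plates were dosed by pin tool the day after seeding, either with one drug alone or with a fixed anchor-drug dose plus five library-drug doses (not always all listed) in √10 steps. After 5 days, cells were fixed and their nuclei stained in one step (final 0.05% Triton X-100, 1% formaldehyde, 1 ug/ml Hoechst), then counted on 4× images. Relative viability is the nuclei count in treated wells divided by that in vehicle wells. Values are medians of duplicate plates.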

[2] = compound: Nc1ccn([C@@H]2O[C@H](CO)[C@@H](O)C2(F)F)c(=O)n1 [Gemcitabine] + Cc1nc(Nc2ncc(C(=O)Nc3c(C)cccc3Cl)s2)cc(N2CCN(CCO)CC2)n1 [Dasatinib] (partner 0.075 µM)
Outline: as §1

[3] = compound: Nc1ccn([C@@H]2O[C@H](CO)[C@@H](O)C2(F)F)c(=O)n1 [Gemcitabine] + CCNC(=O)c1noc(-c2cc(C(C)C)c(O)cc2O)c1-c1ccc(CN2CCOCC2)cc1 [Luminespib] (partner 0.01 µM)
Outline: as §1

[4] = compound: Nc1ccn([C@@H]2O[C@H](CO)[C@@H](O)C2(F)F)c(=O)n1 [Gemcitabine] + CC(C)C[C@H](NC(=O)[C@H](Cc1ccccc1)NC(=O)c1cnccn1)B(O)O [Bortezomib] (partner 0.002 µM)
Outline: as §1

| Cell Line | relative viability ([1]; first compound 0.001 µM) | relative viability ([1]; first compound 0.003162 µM) | relative viability ([1]; first compound 0.01 µM) | relative viability ([1]; first compound 0.03162 µM) | relative viability ([1]; first compound 0.1 µM) | relative viability ([2]; first compound 0.001 µM) | relative viability ([2]; first compound 0.003162 µM) | relative viability ([2]; first compound 0.01 µM) | relative viability ([2]; first compound 0.03162 µM) | relative viability ([2]; first compound 0.1 µM) | relative viability ([3]; first compound 0.001 µM) | relative viability ([3]; first compound 0.003162 µM) | relative viability ([3]; first compound 0.01 µM) | relative viability ([3]; first compound 0.03162 µM) | relative viability ([3]; first compound 0.1 µM) | relative viability ([4]; first compound 0.001 µM) | relative viability ([4]; first compound 0.003162 µM) | relative viability ([4]; first compound 0.01 µM) | relative viability ([4]; first compound 0.03162 µM) | relative viability ([4]; first compound 0.1 µM) |
| --- | --- | --- | --- | --- | --- | --- | --- | --- | --- | --- | --- | --- | --- | --- | --- | --- | --- | --- | --- | --- |
| HCC-827 | 0.497 | 0.304 | 0.309 | 0.197 | 0.164 | 0.295 | 0.226 | 0.319 | 0.253 | 0.186 | 0.777 | 0.365 | 0.386 | 0.259 | 0.16 | 0.964 | 1.08 | 0.875 | 0.607 | 0.427 |
| HCC-78 | 0.495 | 0.446 | 0.388 | 0.302 | 0.294 | 0.322 | 0.31 | 0.232 | 0.154 | 0.209 | – | – | – | – | – | 0.593 | 0.314 | 0.335 | 0.302 | 0.193 |
| NCI-H2085 | 0.441 | 0.433 | 0.316 | 0.314 | 0.3 | 0.221 | 0.232 | 0.287 | 0.206 | 0.158 | 0.435 | 0.477 | 0.369 | 0.298 | 0.263 | 1.02 | 0.964 | 0.897 | 0.682 | 0.405 |
| PC-14 | 0.547 | 0.2 | 0.0649 | 0.0528 | 0.0391 | 0.262 | 0.12 | 0.0174 | 0.0131 | 0.016 | 0.155 | 0.135 | 0.132 | 0.08 | 0.109 | 0.867 | 0.507 | 0.42 | 0.0489 | 0.0512 |
| NCI-H1648 | 0.267 | 0.273 | 0.262 | 0.226 | 0.327 | – | – | – | – | – | – | – | – | – | – | – | – | – | – | – |
| A-427 | 0.552 | 0.492 | 0.421 | 0.326 | 0.235 | 0.67 | 0.629 | 0.183 | 0.126 | 0.109 | 1 | 0.899 | 0.443 | 0.195 | 0.171 | 0.99 | 0.996 | 0.68 | 0.225 | 0.139 |
| H3255 | 0.348 | 0.347 | 0.286 | 0.285 | 0.264 | 0.333 | 0.38 | 0.349 | 0.225 | 0.296 | 0.899 | 0.752 | 0.707 | 0.271 | 0.248 | 0.848 | 0.547 | 0.576 | 0.19 | 0.199 |
| HCC-44 | 0.934 | 0.908 | 0.938 | 0.717 | 0.447 | – | – | – | – | – | 1.07 | 0.979 | 0.813 | 0.261 | 0.226 | 0.895 | 0.874 | 0.701 | 0.393 | 0.131 |
| NCI-H1734 | 0.318 | 0.293 | 0.174 | 0.149 | 0.131 | 0.385 | 0.354 | 0.111 | 0.0942 | 0.091 | 0.159 | 0.157 | 0.119 | 0.136 | 0.119 | 1.08 | 0.862 | 0.199 | 0.157 | 0.102 |
| NCI-H2228 | 0.734 | 0.229 | 0.142 | 0.135 | 0.106 | 0.529 | 0.3 | 0.118 | 0.111 | 0.087 | 0.131 | 0.0993 | 0.14 | 0.149 | 0.124 | 0.98 | 1.06 | 0.281 | 0.198 | 0.126 |
| ABC-1 | – | 0.547 | 0.626 | 0.353 | 0.347 | 0.548 | 0.483 | 0.373 | 0.175 | 0.175 | 0.618 | 1.05 | 0.371 | 0.25 | 0.151 | 0.344 | 0.313 | 0.372 | 0.233 | 0.239 |
| COR-L23 | 0.277 | 0.214 | 0.119 | 0.112 | 0.0964 | 0.606 | 0.495 | 0.201 | 0.0891 | 0.0729 | 0.742 | 0.704 | 0.311 | 0.143 | 0.0841 | 1.04 | 0.949 | 0.66 | 0.114 | 0.101 |
| NCI-H358 | 0.124 | 0.0834 | 0.0975 | 0.0732 | 0.08 | 0.21 | 0.151 | 0.0931 | 0.0759 | 0.0931 | 0.778 | 0.294 | 0.126 | 0.121 | 0.114 | – | – | – | – | – |
| EBC-1 | – | – | – | – | – | – | – | – | – | – | – | – | – | – | – | 0.53 | 0.307 | 0.15 | 0.198 | 0.164 |
| NCI-H596 | – | – | – | – | – | 0.528 | 0.521 | 0.289 | 0.242 | 0.215 | 1.23 | 0.949 | 0.323 | 0.31 | 0.305 | 1 | 1.11 | 0.555 | 0.349 | 0.41 |
| SK-MES-1 | 0.257 | 0.274 | 0.229 | 0.223 | 0.225 | 0.297 | 0.171 | 0.116 | 0.119 | 0.114 | 0.748 | 0.328 | 0.166 | 0.239 | 0.153 | – | – | – | – | – |
| NCI-H1703 | – | – | – | – | – | – | – | – | – | – | – | – | – | – | – | 0.306 | 0.209 | 0.144 | 0.11 | 0.111 |
| NCI-H1944 | 0.357 | 0.286 | 0.268 | 0.229 | 0.171 | 0.208 | 0.209 | 0.182 | 0.153 | 0.123 | 0.73 | 0.764 | 0.758 | 0.458 | 0.183 | – | – | – | – | – |
| NCI-H1563 | – | – | – | – | – | 0.433 | 0.46 | 0.457 | 0.378 | 0.373 | 0.522 | 0.549 | 0.585 | 0.483 | 0.441 | 0.93 | 0.965 | 0.851 | 0.608 | 0.537 |
| NCI-H1395 | 0.614 | 0.627 | 0.445 | 0.352 | 0.347 | 0.409 | 0.368 | 0.371 | 0.321 | 0.31 | 0.739 | 0.607 | 0.391 | 0.361 | 0.343 | – | – | – | – | – |
| NCI-H2170 | 0.408 | 0.394 | 0.266 | 0.184 | 0.13 | 0.609 | 0.673 | 0.415 | 0.114 | 0.104 | 0.564 | 0.633 | 0.575 | 0.169 | 0.151 | – | – | – | – | – |
